Test results from patent US20230099204A1, “PHARMACEUTICAL COMPOSITION FOR PREVENTION OR TREATMENT OF CANCER IN WHICH KRAS MUTATION AND ACTIVATED RON ARE PRESENT” (WELLMARKER BIO CO., LTD., priority 2020, published 2023).

Columns and labels:
T84 [1] = experiment: MTS assay, cytotoxicity on colorectal cancer cell line T84; assay type: cell-based; conditions: Homo sapiens, RON Δ165, KRAS G13D, 72 hours
Protocol: (§1) MTS assay was performed to compare cytotoxicity of the compounds of Example 1, Example 2, Example 3, Example 4, Example 5, Example 6, and positive control 1 on a colorectal cancer cell line, and a cell death rate of the colorectal cancer cell line was analyzed to compare anticancer activity of the compounds.
(§2) The MTS assay was performed by seeding each colorectal cell line in a 96-well plate at 1,000 cells per well, and after 24 hours, performing treatment with the compounds of Examples 1 to 6 and positive control 1 at various concentrations (0.000001 μM to 10 μM) in 100 μL of 10% FBS-RPMI medium (WELGENE Inc.) per well. The cells were incubated for 72 hours. Then, 20 μL of MTS solution (Promega) was added thereto, and the cells were incubated for 2 hours. Then, the absorbance was measured at 490 nm. The IC50 values for the compounds of Examples 1 to 6 and positive control 1 were calculated using GraphPad Prism™ 5 to investigate cytotoxicity.

[2] = system: HCT15 (KRAS G13D/mRON Δ160); experiment: Cell line HCT15-transplanted mouse model; assay type: in vivo, BALB/c nude mice
Protocol: 5-Week-old female BALB/c nude mice were purchased and acclimatized for 1 week. Then, human colorectal cancer patient-derived cell line HCT15 (KRAS G13D/mRON Δ160) at 5×10^6 cells/mouse was injected subcutaneously (100 μL) into the right dorsal side of the mice. The compound of Example 1 was orally administered when the tumor reached a size of about 100 mm^3 The drug was administered once a day for 4 weeks, and tumor size and mouse body weight were measured twice a week.
After completion of the drug administration, the tumor tissues were analyzed.

HCT8 [3] = experiment: Cell death induction, trypan blue cell counting, HCT8; assay type: cell-based, human; conditions: HCT8 (pTyr-wtRON); 1 μM; 48 hours; FIG. 1
Protocol: (§3) Based on the results above, to identify the cell death-inducing ability of the compounds of Example 1 and positive control 1, which are representative materials, preparation was performed by seeding respective colorectal cancer cell lines SNU-[…], HCT8, T84, and SW620 onto 60-mm plates at 3×10^5 cells, and then incubation was performed for 24 hours. Thereafter, treatment with each of Example 1 and positive control 1 was performed at 1μM and incubation was performed for 48 hours. After 48 hours, the cells and cell suspensions were collected by treatment with trypsin, resuspended in 1× PBS and stained using a trypan blue solution (Sigma, cat# T8154). The stained cells were counted using a hemocytometer. Cell counting was repeated, and the mean and the standard deviation were calculated.

HCT8 [4] = experiment: MTS assay, cytotoxicity on colorectal cancer cell line HCT8; assay type: cell-based; conditions: Homo sapiens, HCT-8, RON wt, KRAS G13D, 72 hours
Protocol: as §1, §2

T84 [5] = experiment: Cell death induction, trypan blue cell counting, T84; assay type: cell-based; conditions: T84 with a RON mutation; 1 μM; 48 hours; FIG. 1
Protocol: as §3

DLD1 = experiment: MTS assay, cytotoxicity on colorectal cancer cell line DLD1; assay type: cell-based; conditions: Homo sapiens, DLD-1, RON wt, KRAS G13D, 72 hours
Protocol: as §1, §2

[6] = system: colorectal cancer patient-derived cell lines; experiment: Cell death induction (cleaved caspase 3 staining) in colorectal cancer patient-derived cell lines; assay type: cell-based, human; conditions: 1 μM, FIG. 4
[7] = system: SW620 (KRAS G12V/mRON Δ155); experiment: Mechanism of action in SW620 overexpressing β-catenin (trypan blue exclusion, Western blotting); assay type: cell-based, human
Protocol: Each of an empty vector and human beta-catenin pcDNA3.1 (Plasmid #16828, Addgene) that is a vector into which β-catenin DNA (X87838.1, GENE ID: 1499) is introduced, was transfected into the human colorectal cancer patient-derived cell line SW620 (KRAS G12V/mRON […]), and then treatment with the compound of Example 1 was performed. Subsequently, all cells were collected when 48 hours had elapsed. Cell death induction efficacy was compared and analyzed using a trypan blue exclusion assay. As described above, the cell line SW620 was caused to overexpress β-catenin. Then, treatment with the compound of Example 1 was performed, and cell death induction efficacy was observed. In addition, as described above, the cell line SW 620 was caused to overexpress β-catenin. Then, the sample treated with the compound of Example 1 was used to identify expressions of β-catenin, p-ERK, ERK, c-myc, cyclin D1, pTyr-mRON, mRON, and cleaved caspase 3 with Western blotting.

[8] = system: SW620 (KRAS G12V/mRON Δ155); experiment: Cell line SW620-transplanted mouse model; assay type: in vivo, BALB/c nude mice
Protocol: 5-Week-old female BALB/c nude mice were purchased and acclimatized for 1 week. Then, human colorectal cancer patient-derived cell line SW620 (KRAS
G12V/mRON Δ155) at 5×10^6 cells/mouse was injected subcutaneously (100 μL) into the right dorsal side of the mice. The compound of Example 1 was orally administered when the tumor reached a size of about 100 mm^3. The drug was administered once a day for 4 weeks, and tumor size and mouse body weight were measured twice a week. After completion of the drug administration, the experimental animals were euthanized, and then the tumors were extracted and weighed for comparative analysis.
A portion of the extracted tumor tissue was fixed in 10% formalin and processed into a paraffin block. Then, the block was made into sections. Staining of the slide was performed through immunochemical staining. Another portion of the extracted tumor tissue was subjected to lysis, and then Western blotting was used to identify changes in expression of respective proteins.

HCT15 = experiment: MTS assay, cytotoxicity on colorectal cancer cell line HCT15; assay type: cell-based; conditions: Homo sapiens, HCT-15, RON Δ160, KRAS G13D, 72 hours
Protocol: as §1, §2

SW480 = experiment: MTS assay, cytotoxicity on colorectal cancer cell line SW480; assay type: cell-based; conditions: Homo sapiens, RON Δ155, KRAS G12V, 72 hours
Protocol: as §1, §2

[9] = immunochemical staining, FIG. 7

CCOc1ccn(-c2ccc(F)cc2)c(=O)c1C(=O)Nc1ccc(Oc2ccnc3cc(-c4ccc(CN5CCOCC5)cn4)sc23)c(F)c1.Cl [Example 1, 4-ethoxy-N-[3-fluoro-4-({2-[5-(morpholinomethyl)pyridine-2-yl]thieno[3,2-b]pyridine-7-yl}oxy)phenyl]-1-(4-fluorophenyl)-2-oxo-1,2-dihydropyridine-3-carboxamide hydrochloride]
IC50 (T84 [1]): 350 nM
expression of cleaved caspase 3 in tumor tissue ([2]; FIG. 13): induced expression
expression of cyclin D1 (PD marker) in tumor tissue ([2]; FIG. 13): decreased expression
expression of pTyr-mRON in tumor tissue ([2]; FIG. 13): decreased expression
tumor growth inhibitory efficacy ([2]; oral, once a day for 4 weeks, FIG. 12): high tumor growth inhibitory efficacy
cell death induction efficacy (HCT8 [3]): cell-killing efficacy was exhibited
IC50 (HCT8 [4]): 420 nM
cell death induction efficacy (T84 [5]): cell death induction efficacy was exhibited regardless of mutation type
IC50 (DLD1): 240 nM
cell death induction efficacy ([6]; patient-derived cell line expressing a RON mutation or pTyr-wtRON): exhibited cell death induction efficacy
cell death induction efficacy ([6]; patient-derived cell line with inactive RON): did not exhibit cell death induction efficacy
expression of pTyr-mRON ([7]; SW620, empty vector or β-catenin overexpressed, Western blotting, FIG. 11): decreased by the compound of Example 1 regardless of β-catenin
cell death induction efficacy ([7]; SW620 overexpressing β-catenin, 48 hours, trypan blue exclusion, FIG. 10): cell death induction efficacy of the compound was decreased
expression of p-ERK, c-myc, and cyclin D1 ([7]; SW620 transfected with the empty vector, Western blotting, FIG. 11): decreased
expression of p-ERK, c-myc, and cyclin D1 ([7]; SW620 with β-catenin overexpressed, Western blotting, FIG. 11): increased again
Tumor growth inhibition (TGI, %) ([8]; 30 mg/kg, oral, once a day for 4 weeks): 79.2 ± 2.2%
expression of cleaved caspase 3 in tumor tissue [8, 9]: induced expression
expression of cyclin D1 (PD marker) in tumor tissue [8, 9]: decreased expression
expression of pTyr-RON in tumor tissue [8, 9]: decreased expression
tumor growth inhibitory efficacy ([8]; oral, 4 weeks, Table 5, FIG. 5, FIG. 6): high tumor growth inhibitory efficacy
IC50 (HCT15): 230 nM
IC50 (SW480): 340 nM
